In general, GI50 refers to the concentration that inhibits growth by half. The TGI is the concentration at which net growth stops.

The structures appear in SMILES notation.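 Exposure lasted 48 hours, with cells grown in 96-well plates and compounds tested at five concentrations. Here, GI50 denotes the concentration required for 50% inhibition of growth. The concentration for full growth arrest is given as TGI.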

The test system of the first assay is T-47D breast. In words: DTP human tumour cell line panel, 48 h.
Take `COc1ccc(-c2nnc(COc3ccc(C(=O)/C=C/c4ccco4)cc3)o2)cc1`: the GI50 is 2.91 µM and the TGI stood at 10.8 µM.
In turn, `CC1(C)C2CCC(=O)C1CC2` (stereo unspecified) came in with a TGI of over 100 µM.

The subject of another assay is SF-268 CNS. In words: DTP human tumour cell line panel, 48 h.
As to `CCOC(=O)c1cc2nc3ccccc3c(=O)n2c2ccccc12`, the TGI is over 10 µM.
`COc1cc2c(c(OC)c1OC)-c1ccc(OC)c(=O)cc1C(NC(=O)c1ccc(N=[N+]=[N-])cc1)CC2` (stereo unspecified): the TGI was over 100 µM.
For `CCN1CCN(c2nc(C)cc(N(CCNc3ccnc4cc(Cl)ccc34)Cc3ccc4c(c3)OCO4)n2)CC1`, the GI50 was 2.09 µM and the TGI came to 5.81 µM.
On to `COc1c(Cl)c(=O)oc2ccc(Cl)cc12`, for which the TGI is over 100 µM.
With `Cc1cc(I)cc(CN(C)CCCN2CCCCC2)c1O`, the GI50 is 13.1 µM and the TGI stood at 27.5 µM.
In the case of `COc1cc(NCc2ccc3oc(=O)c(-c4ccccc4)nc3c2)cc(OC)c1OC`, the TGI was over 10 µM.
With `CN(C(=O)c1ccc(C(F)(F)F)cc1)c1ccc(Oc2ccc3c(c2)cc(C(=O)N2CCN(Cc4ccc(OC(F)F)cc4)CC2)n3C)nc1`, the GI50 is over 100 µM and the TGI is over 100 µM.
`Cc1ccccc1S(=O)(=O)OC1NS(=O)(=O)c2ccccc21` (stereo unspecified) returned a TGI of over 100 µM.
Take `Nc1ncnc2n[nH]c(Nc3ccc(F)cc3)c12`: the GI50 is 28.7 µM and the TGI was over 100 µM.
Taken in the same sequence, the figures for `CCN(CC)c1ccc(-c2cc(-c3cc(OC)c(OC)c(OC)c3)nc(N3CCOCC3)c2C#N)cc1` were 5.96 µM and over 100 µM.
`CC(=O)OC1=CC(n2cc(F)c(=O)[nH]c2=O)OC(C)C1=O` (stereo unspecified): the TGI was over 100 µM.
The same measure, in the same setting: then `NC1(C(=O)OCc2ccccc2)CCCC1`, with 31.4 µM.
Regarding `Cn1cnc([N+](=O)[O-])c1S(=O)(=O)Oc1cccc2ccccc12`, the GI50 is 7.06 µM and the TGI is 33.4 µM.
The like results for `Fc1cc2[nH]ncc2c2c3c(c(-c4cn[nH]c4)nc12)CCCC3` were, in that order, 1.31 µM and 4.01 µM.
As to `COc1cc(OC)cc(-c2cc(=O)c3c(OC)c(OC)c(OC)c(OC)c3o2)c1`, the TGI was over 100 µM.
The same measure, in the same setting: to `C=C(Br)C(C)(Br)CCC(Br)C(C)(C)Cl` (stereo unspecified) belongs 36.1 µM.
On the same count and under the same terms, then `CSc1nc(NC2OCC(OC(C)=O)C(OC(C)=O)C2OC(C)=O)c(N=CC=Nc2c(NC3OCC(OC(C)=O)C(OC(C)=O)C3OC(C)=O)nc(SC)[nH]c2=O)c(=O)[nH]1` (stereo unspecified), with over 100 µM.
Turning to `COc1ccc(-c2nnc(COc3ccc(NC(=O)Nc4cc(C(F)(F)F)cc(C(F)(F)F)c4)cc3F)o2)cc1`, the GI50 is 3.04 µM and the TGI was 9.94 µM.
Taken in the same sequence, the figures for `COc1ccc(-c2nnc(COc3ccc(C(=O)/C=C/c4ccco4)cc3)o2)cc1` were 2.76 µM and 8.25 µM.
On to `CC1(C)C2CCC(=O)C1CC2` (stereo unspecified), for which the TGI is over 100 µM.

The test system of a further assay is RXF 393 renal. Briefly: DTP human tumour cell line panel, 48 h.
For the compound `CCOC(=O)c1cc2nc3ccccc3c(=O)n2c2ccccc12`, the TGI is over 10 µM.
In turn, `COc1cc2c(c(OC)c1OC)-c1ccc(OC)c(=O)cc1C(NC(=O)c1ccc(N=[N+]=[N-])cc1)CC2` (stereo unspecified) came in with a TGI of 0.061 µM.
Take `CCN1CCN(c2nc(C)cc(N(CCNc3ccnc4cc(Cl)ccc34)Cc3ccc4c(c3)OCO4)n2)CC1`: the GI50 is 1.44 µM and the TGI was found to be 3.08 µM.
With `COc1c(Cl)c(=O)oc2ccc(Cl)cc12`, the TGI is over 100 µM.
Turning to `Cc1cc(I)cc(CN(C)CCCN2CCCCC2)c1O`, the GI50 was 11.7 µM and the TGI is 26.6 µM.
Compound `COc1cc(NCc2ccc3oc(=O)c(-c4ccccc4)nc3c2)cc(OC)c1OC` had a TGI of over 10 µM.
In the case of `CN(C(=O)c1ccc(C(F)(F)F)cc1)c1ccc(Oc2ccc3c(c2)cc(C(=O)N2CCN(Cc4ccc(OC(F)F)cc4)CC2)n3C)nc1`, the GI50 is 49.2 µM and the TGI was over 100 µM.
As to `Cc1ccccc1S(=O)(=O)OC1NS(=O)(=O)c2ccccc21` (stereo unspecified), the TGI was over 100 µM.
On to `Nc1ncnc2n[nH]c(Nc3ccc(F)cc3)c12`, for which the GI50 was 13.6 µM and the TGI is over 100 µM.
On to `CCN(CC)c1ccc(-c2cc(-c3cc(OC)c(OC)c(OC)c3)nc(N3CCOCC3)c2C#N)cc1`, for which the GI50 is 1.01 µM and the TGI was 21 µM.
In turn, `CC(=O)OC1=CC(n2cc(F)c(=O)[nH]c2=O)OC(C)C1=O` (stereo unspecified) displayed a TGI of over 100 µM.
On the same count and under the same terms, to `NC1(C(=O)OCc2ccccc2)CCCC1` belongs 33.7 µM.
With `Cn1cnc([N+](=O)[O-])c1S(=O)(=O)Oc1cccc2ccccc12`, the GI50 is 2.3 µM and the TGI was determined as 4.3 µM.
Taken in the same sequence, the figures for `Fc1cc2[nH]ncc2c2c3c(c(-c4cn[nH]c4)nc12)CCCC3` were 0.275 µM and 1.27 µM.
Compound `COc1cc(OC)cc(-c2cc(=O)c3c(OC)c(OC)c(OC)c(OC)c3o2)c1` displayed a TGI of 84.8 µM.
The same measure, in the same setting: then `C=C(Br)C(C)(Br)CCC(Br)C(C)(C)Cl` (stereo unspecified), with 37.5 µM; and `CSc1nc(NC2OCC(OC(C)=O)C(OC(C)=O)C2OC(C)=O)c(N=CC=Nc2c(NC3OCC(OC(C)=O)C(OC(C)=O)C3OC(C)=O)nc(SC)[nH]c2=O)c(=O)[nH]1` (stereo unspecified), with 53 µM.
As to `COc1ccc(-c2nnc(COc3ccc(NC(=O)Nc4cc(C(F)(F)F)cc(C(F)(F)F)c4)cc3F)o2)cc1`, the GI50 is 1.96 µM and the TGI was 6.06 µM.
As for `COc1ccc(-c2nnc(COc3ccc(C(=O)/C=C/c4ccco4)cc3)o2)cc1`, the GI50 is 1.87 µM and the TGI worked out at 3.62 µM.
`CC1(C)C2CCC(=O)C1CC2` (stereo unspecified): the TGI is over 100 µM.

For another assay, the system named is HCC-2998 colon. In words: DTP human tumour cell line panel, 48 h.
The compound `CCOC(=O)c1cc2nc3ccccc3c(=O)n2c2ccccc12` gave a TGI of over 10 µM.
Regarding `COc1cc2c(c(OC)c1OC)-c1ccc(OC)c(=O)cc1C(NC(=O)c1ccc(N=[N+]=[N-])cc1)CC2` (stereo unspecified), the TGI turned out to be 0.0513 µM.
Take `CCN1CCN(c2nc(C)cc(N(CCNc3ccnc4cc(Cl)ccc34)Cc3ccc4c(c3)OCO4)n2)CC1`: the GI50 was 2.03 µM and the TGI came to 3.96 µM.
As for `COc1c(Cl)c(=O)oc2ccc(Cl)cc12`, the TGI is over 100 µM.
Take `Cc1cc(I)cc(CN(C)CCCN2CCCCC2)c1O`: the GI50 is 14 µM and the TGI amounted to 27.2 µM.
In the case of `COc1cc(NCc2ccc3oc(=O)c(-c4ccccc4)nc3c2)cc(OC)c1OC`, the concentration for total growth inhibition (TGI) was over 10 µM.
Take `CN(C(=O)c1ccc(C(F)(F)F)cc1)c1ccc(Oc2ccc3c(c2)cc(C(=O)N2CCN(Cc4ccc(OC(F)F)cc4)CC2)n3C)nc1`: the GI50 is over 100 µM and the TGI is over 100 µM.

(Values after PubChem BioAssay (NCI).)
